Measured values: ChEMBL document CHEMBL1127216, “Diastereoselective synthesis of cyclopropyl phenylalanines and their incorporation into dipeptides” (Bioorg Med Chem Lett, 1993)

Each molecule was assayed against T1, Cholecystokinin receptor type A (Rattus norvegicus, UniProt P30551) (assay: Compound was tested for the inhibition of specific binding of [125I]bolton Hunter CCK-8 to Cholecystokinin type A receptor in the rat pancreas).
T1 sequence (P30551 whole entry): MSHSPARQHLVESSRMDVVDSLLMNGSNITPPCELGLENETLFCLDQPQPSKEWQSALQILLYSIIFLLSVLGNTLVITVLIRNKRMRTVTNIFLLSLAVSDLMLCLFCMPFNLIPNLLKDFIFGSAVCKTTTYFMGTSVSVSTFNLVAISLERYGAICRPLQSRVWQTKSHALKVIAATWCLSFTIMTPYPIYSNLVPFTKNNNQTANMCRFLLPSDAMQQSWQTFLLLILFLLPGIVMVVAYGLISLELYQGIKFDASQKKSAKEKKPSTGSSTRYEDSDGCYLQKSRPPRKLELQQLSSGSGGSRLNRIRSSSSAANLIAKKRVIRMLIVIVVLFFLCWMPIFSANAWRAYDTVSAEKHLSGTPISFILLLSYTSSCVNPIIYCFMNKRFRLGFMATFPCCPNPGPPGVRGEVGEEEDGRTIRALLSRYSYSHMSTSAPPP

IC50 [nM]	SMILES
26	COC(=O)[C@@]1(NC(=O)[C@@](C)(Cc2c[nH]c3ccccc23)NC(=O)OC2C3CC4CC(C3)CC2C4)C[C@H]1c1ccccc1 (some centres undefined)
720	COC(=O)[C@]1(NC(=O)[C@@](C)(Cc2c[nH]c3ccccc23)NC(=O)OC2C3CC4CC(C3)CC2C4)C[C@H]1c1ccccc1 (some centres undefined)
60	C[C@](Cc1c[nH]c2ccccc12)(NC(=O)OC1C2CC3CC(C2)CC1C3)C(=O)N/C(=C\c1ccccc1)C(=O)O (some centres undefined)
84	C[C@](Cc1c[nH]c2ccccc12)(NC(=O)OC1C2CC3CC(C2)CC1C3)C(=O)N[C@@]1(C(=O)O)C[C@H]1c1ccccc1 (some centres undefined)

Each molecule was assayed against T2, Gastrin/cholecystokinin type B receptor (Mus musculus, UniProt P56481) (assay: Compound was tested for the inhibition of specific binding of [125I]bolton Hunter CCK-8 to Cholecystokinin type B receptor in mouse cerebral cortex).
T2 sequence (P56481 whole entry): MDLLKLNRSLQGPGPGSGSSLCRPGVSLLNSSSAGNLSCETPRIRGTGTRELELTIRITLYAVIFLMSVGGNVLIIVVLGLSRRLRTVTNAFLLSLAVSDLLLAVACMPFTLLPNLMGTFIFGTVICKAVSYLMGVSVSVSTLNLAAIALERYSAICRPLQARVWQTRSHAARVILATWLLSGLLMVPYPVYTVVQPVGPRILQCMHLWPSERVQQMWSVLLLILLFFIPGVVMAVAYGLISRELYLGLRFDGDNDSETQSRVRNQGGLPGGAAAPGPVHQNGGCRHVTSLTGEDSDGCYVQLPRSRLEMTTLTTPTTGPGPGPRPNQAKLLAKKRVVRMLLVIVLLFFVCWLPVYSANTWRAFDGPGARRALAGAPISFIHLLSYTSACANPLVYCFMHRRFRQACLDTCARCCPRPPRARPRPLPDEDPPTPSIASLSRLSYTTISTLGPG
Type: tissue-based

IC50 [nM]	SMILES
3.9	COC(=O)[C@@]1(NC(=O)[C@@](C)(Cc2c[nH]c3ccccc23)NC(=O)OC2C3CC4CC(C3)CC2C4)C[C@H]1c1ccccc1 (some centres undefined)
600	COC(=O)[C@]1(NC(=O)[C@@](C)(Cc2c[nH]c3ccccc23)NC(=O)OC2C3CC4CC(C3)CC2C4)C[C@H]1c1ccccc1 (some centres undefined)
54	C[C@](Cc1c[nH]c2ccccc12)(NC(=O)OC1C2CC3CC(C2)CC1C3)C(=O)N/C(=C\c1ccccc1)C(=O)O (some centres undefined)
140	C[C@](Cc1c[nH]c2ccccc12)(NC(=O)OC1C2CC3CC(C2)CC1C3)C(=O)N[C@@]1(C(=O)O)C[C@H]1c1ccccc1 (some centres undefined)
270	COC(=O)/C(=C/c1ccccc1)NC(=O)[C@@](C)(Cc1c[nH]c2ccccc12)NC(=O)OC1C2CC3CC(C2)CC1C3 (some centres undefined)
